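Dose response: 5 concentrations. Exposure: 48 h. Format: 96-well plates. Endpoint: linear interpolation; highest concentration if not reached. GI50 = concentration required for 50% inhibition of growth. Definition used: TGI = concentration required for complete inhibition of growth.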
Key:
Test in all cases: NCI-60 cell line screen, 48 h
[1] = tested on: PC-3 prostate
[2] = tested on: HOP-92 NSCLC
[3] = tested on: OVCAR-5 ovarian
[4] = tested on: SK-MEL-28 melanoma
[5] = tested on: SNB-75 CNS
[6] = tested on: RPMI-8226 leukemia
[7] = tested on: UACC-257 melanoma
[8] = tested on: IGROV1 ovarian
[9] = tested on: K-562 leukemia
[10] = tested on: MDA-MB-231 breast

Compound | GI50 [1] [µM] | TGI [1] [µM] | GI50 [2] | TGI [2] | GI50 [3] | TGI [3] | GI50 [4] | TGI [4] | GI50 [5] | TGI [5] | GI50 [6] | TGI [6] | GI50 [7] | TGI [7] | GI50 [8] | TGI [8] | GI50 [9] | TGI [9] | GI50 [10] [µM] | TGI [10] [µM]
Cc1ccc(Cl)cc1NC(=O)c1sc2nc3c(cc2c1N)C(=O)CCC3 | 4.34 | > 100 | > 100 µM | > 100 µM | > 100 µM | > 100 µM | > 100 µM | > 100 µM | 4.1 µM | > 100 µM | > 100 µM | > 100 µM | 7.3 µM | > 100 µM | > 100 µM | > 100 µM | 3.48 µM | > 100 µM | – | –
N#CC1CCCCCCCCCCC(=O)N(CCCl)C1=O (stereo not given) | – | – | – | > 100 µM | – | > 100 µM | – | > 100 µM | – | > 100 µM | – | > 100 µM | – | > 100 µM | – | > 100 µM | – | > 100 µM | – | –
COc1ccccc1NC(=O)CC(=O)N/N=C/c1ccc(N(CCC#N)S(=O)(=O)c2ccccc2)cc1 | – | – | – | > 100 µM | – | > 100 µM | – | > 100 µM | – | > 100 µM | – | > 100 µM | – | > 100 µM | – | > 100 µM | – | > 100 µM | – | –
N#Cc1cccc(/C=N/N=C(\N)NO)c1 | – | – | – | > 100 µM | – | > 100 µM | – | > 100 µM | – | > 100 µM | – | – | – | > 100 µM | – | > 100 µM | – | > 100 µM | – | –
O=Cc1c(O)c(C(=O)Nc2ccc3[nH]c(=O)[nH]c3c2)cc2ccccc12 | – | – | – | > 100 µM | – | > 100 µM | – | > 100 µM | – | > 100 µM | – | > 100 µM | – | > 100 µM | – | > 100 µM | – | > 100 µM | – | –
CC(=O)OCC1OC(n2c(-c3ccc(C)cc3)cc(-c3ccccc3)c(C#N)c2=O)C(OC(C)=O)C(OC(C)=O)C1OC(C)=O (stereo not given) | – | – | – | > 100 µM | – | > 100 µM | – | > 100 µM | – | > 100 µM | – | > 100 µM | – | > 100 µM | – | > 100 µM | – | > 100 µM | – | –
N#C/C(=C\c1ccc(Br)cc1)n1nnc2ccc(F)cc21 | 0.953 | 2.89 | – | – | 1.87 µM | 3.99 µM | 1.29 µM | 3.25 µM | – | 2.24 µM | 0.841 µM | 6.96 µM | 1.42 µM | 4.25 µM | 0.569 µM | 2.25 µM | 0.332 µM | > 100 µM | 1.87 | 4.8
N#CC1CC2(CCN1C(=O)c1ccccc1)OCCO2 (stereo not given) | – | – | – | > 100 µM | – | > 100 µM | – | – | – | > 100 µM | – | > 100 µM | – | > 100 µM | – | > 100 µM | – | > 100 µM | – | –
COC(C)(C)C/C=C/C(C)=C/C=C/C(C)=C\C=C\C(C)=C\C=C\C=C(C)\C=C\C=C(C)\C=C\C=C(C)\C=C\CC(C)(C)OC | – | – | > 150 µg/mL | > 150 µg/mL | > 150 µg/mL | > 150 µg/mL | > 150 µg/mL | > 150 µg/mL | > 150 µg/mL | > 150 µg/mL | > 150 µg/mL | > 150 µg/mL | > 150 µg/mL | > 150 µg/mL | > 150 µg/mL | > 150 µg/mL | > 150 µg/mL | > 150 µg/mL | – | –
CC(C)OP(=O)(NC(=S)c1ccccc1)OC(C)C | – | – | – | > 100 µM | – | > 100 µM | – | > 100 µM | – | > 100 µM | – | – | – | > 100 µM | – | > 100 µM | – | > 100 µM | – | –
NC(N)=NS(=O)(=O)c1ccc(NCCc2c3ccccc3nc3ccccc23)cc1 | – | – | – | > 100 µM | – | > 100 µM | – | > 100 µM | – | > 100 µM | – | > 100 µM | – | > 100 µM | – | > 100 µM | – | > 100 µM | – | –
Cc1cc2c(C)nn(Cc3ccc(Cl)cc3)c2c(C#N)c1C | – | – | – | 95.1 µM | – | > 100 µM | – | > 100 µM | – | – | – | > 100 µM | – | > 100 µM | – | > 100 µM | – | – | – | –
Cc1cc(Cl)ccc1NC(=O)CC1SC(=Nc2ccccc2Cl)NC1=O (stereo not given) | – | – | – | > 100 µM | – | > 100 µM | – | > 100 µM | – | > 100 µM | – | > 100 µM | – | > 100 µM | – | > 100 µM | – | > 100 µM | – | –
O=C1C(=Cc2c(O)cc(O)cc2O)C(=O)c2ccccc21 | – | – | – | > 58 µM | – | > 57.7 µM | – | > 60.3 µM | – | > 59.7 µM | – | > 71.9 µM | – | > 58.1 µM | – | > 59.8 µM | – | > 93.2 µM | – | –
CC(C)(c1ccccc1)c1ccc(OC#N)cc1 | – | – | – | > 100 µM | – | > 100 µM | – | > 100 µM | – | > 74.4 µM | – | > 70.1 µM | – | > 100 µM | – | > 100 µM | – | > 100 µM | – | –
Cn1cc2ccccc2c1-c1nc(F)nc(OCC(=O)[C@H]2CCC3[C@@H]4CCC5=CC(=O)CC[C@]5(C)C4[C@@H](O)C[C@@]32C)n1 (stereo not given in full) | – | – | – | 36.6 µM | – | > 73.7 µM | – | 31.2 µM | – | 35.2 µM | – | 21.3 µM | – | 37.3 µM | – | 22.9 µM | – | 8.94 µM | – | –

Source: PubChem BioAssay (NCI)
